# Source: patent US8618080B2, “Immunomodulatory compounds and treatment of diseases related to an overproduction of inflammatory cytokines” (OM Pharma, priority 2006, dated 2013)
# Columns and labels:
# NOD mice = test: Occurrence of diabetes in Non Obese Diabetic (NOD) mice; type: in vivo; conditions: for Occurrence of diabetes versus control (Kaplan-Meier, logrank): 10 weeks
# Description: Group of 10 female 6-week old NOD mice were treated during 10 weeks with either 0.01, 0.1, and 1 mg/kg of OM-197-MP-AC. A group of 6 female MOD mice receiving 200 μl PBS i.p. 3 times a week was used as control.
# In this series of experiments, the treatment was continued until the mice have reached 16 weeks of age. This is the point in time when control animals start developing overt diabetes.
# Results in terms of diabetes incidence were compared to those obtained in control animals. Diabetes was checked once a week by glucosuria testing, using test strips (Glukotest®, Roche, France), twice a week when diabetes appeared. Diabetes was confirmed by evaluating glycemia (>3 mg/ml) with test strips (Glucotrend®).
# The occurrence of diabetes in the different experimental groups is plotted (see FIG. 15) using the Kaplan-Meier method, i.e. non parametric cumulative survival plot. The statistical comparison between the curves is performed using the logrank (Mantel-Cox) test which provided the corresponding χ2 values.
# FIG. 15: Occurrence of diabetes in NOD mice. Mice were treated i.p. with either PBS (6 animals), or the 3 indicated doses of OM-197-MP-AC (3 groups of 10 animals). Diabetes was checked once a week by glucosuria testing (Glukotest), and twice a week when diabetes appeared. Diabetes was confirmed by evaluating glycemia (>3 mg/ml) with test strips (Glucotrend®). The occurrence of diabetes in the different experimental groups is plotted (see FIG. 15) using the Kaplan-Meier method, i.e. non parametric cumulative survival plot. The statistical comparison between the curves is performed using the logrank (Mantel-Cox) test which provided the corresponding χ2 values: OM-197-MP-AC 1 mg/kg p=0.321; 0.1 mg/kg=0.0543
# [1] = test system: LACK-sensitized and challenged Balb/c ByJ mice; test: LACK-induced allergic asthma model, prophylactic i.p. treatment; type: in vivo; conditions: 1 mg/Kg i.p. prophylactic
# Description: Females Balb/c ByJ mice of 6-week old were purchased from the Centre d'Elevage Janvier (CERJ, Le Genest-St-lsle, France). All the mice were sensitised by 2 i.p. injections of 10 μg LACK protein precipitated in 2 mg of Alum (PerBio Science France SAS, Brebières, France) at days 0 and 7.
# Animals were divided in groups, as follow: • LACK-sensitized and saline-challenged mice (4 mice) • LACK-sensitized and challenged mice (8 mice) • OM-197-MP-AC-treated, LACK-sensitized and challenged mice (8 mice)
# Mice of the third group were treated intraperitoneally with 1 mg/Kg (20 μg per mouse) of OM-197-MP-AC. Mice were treated on days: −1, 1, 2, 3, 6, 8, 9, 10 and 11. From day 16 to day 21, mice of groups B and C were exposed to a daily 20-min aerosol challenge of a LACK solution (0.15%) whereas mice of the saline group received a saline solution as control.
# AHR was measured for all the mice one day after the last antigen challenge by whole-body plethysmography (Emka) in response to increasing concentrations (6-25 mg/ml) of inhaled methacholine (acetyl methyl choline, Sigma). AHR is expressed as enhanced pause (Penh, see FIG. 4), a dimensionless parameter perfectly correlated to airway compliance and resistance calculated value, which correlates with measurement of airway resistance, impedance, and intrapleural pressure.
# All the mice were bled by heart puncture one day after the last aerosol. Total IgE were quantified by ELISA using rat EM-95 anti-IgE mAbs as coating antibody and rat anti-IgE mAbs coupled to biotin as second antibody as described (Julia et al., 2002).
# Individual mice were bled and a canula was inserted into their trachea. Lungs were washed 3 times with 1 ml of warmed PBS. Cells were washed with PBS, resuspended in 300 μl, and counted using a Burker-Türk chamber. For differential BAL cell counts, cytospin preparations were made and stained with Wright/Giemsa coloration. The respective numbers of neutrophils, eosinophils, and other mononuclear cells were determined by microscopic examination. Only the percentage of eosinophils (FIG. 5) is reported here.
# To investigate lung cytokine contents of treated and untreated animals, protein extracts were prepared from lungs of LACK-sensitized and PBS-challenged wt mice (group “Control”), LACK-sensitized and challenged wt mice (group Asthma”), OM-197-MP-AC-treated wt mice (group “OM-197”). IL-4, IL-5, IL-13 contents were analyzed by multiplex analysis using FACSArray.
# Treated or untreated LACK-sensitized mice (see above) were next challenged with daily aerosol of LACK for five consecutive days. One day after the last aerosol, AHR was measured by whole-body plethysmography in response to increasing concentrations of aerosolized methacholine.
# To further investigate the effects of prophylactic OM-197-MP-AC on allergic airway inflammation, proteins were extracted from lungs of both treated and untreated WT mice, and cytokines known to play a important role in asthma (IL-4, IL-5 and IL-13) were quantified by multiplex analysis using CBA array beads and FACSarray. Data were normalized to the total quantity of proteins and given as pg of cytokine per mg of lung proteins.
# [2] = lung protein extracts, CBA/FACSArray
smiles,measurement,setting,value
"CCCCCCCCCCCC(=O)O[C@H](CCCCCCCCCCC)CC(=O)N[C@@H](CCOP(=O)(O)O)C(=O)NCCC[C@H](COC(=O)CCCCCN)NC(=O)C[C@H](O)CCCCCCCCCCC [OM-197-MP-AC, (3S, 9R)-3-[(R)-3-dodecanoyloxytetradecanoylamino]-4-oxo-5-aza-9-[(R)-3-hydroxytetradecanoylamino]-decan-1, 10-diol 1-dihydrogenophosphate 10-(6-aminohexanoate)]","Occurrence of diabetes versus control (Kaplan-Meier, logrank)",NOD mice; 0.1 mg/kg i.p.,positive trend
same,Animals exhibiting diabetes,"NOD mice; 0.3 mg/kg, week 27, another experiment",27%
same,"Occurrence of diabetes versus control (Kaplan-Meier, logrank)",NOD mice; 1 mg/kg i.p.,significantly active
same,"Eosinophils in BAL, less than untreated control mice",[1],3 times less
same,"Total IgE in sera, less than untreated sensitized, challenged mice",[1]; ELISA,2 fold less
same,Amount of KC produced in lungs,[1]; lung protein extracts,reduced by half
same,"Lung IFN-γ, less than untreated mice",[1]; lung protein extracts,2 times less
same,"Lung IL-6, less than untreated mice",[1]; lung protein extracts,1.5 times less
same,"Lung MCP-1, less than untreated animals",[1]; lung protein extracts,1.8 times less
same,"Lung IL-4, less than untreated mice",[1]; [2],5 times less
same,"Lung IL-5, less than untreated mice",[1]; [2],5 times less
same,"Lung IL-13, less than untreated mice",[1]; [2],3.5 times less
same,"Airway hyperresponsiveness (AHR, Penh) to methacholine",[1]; whole-body plethysmography one day after last challenge,did not exhibit AHR
